Test results taken from US10508120B2, “TYK2 inhibitors and uses thereof” (Nimbus Lakshmi, Inc., priority 2017, dated 2019).
Where two headings read alike, the source gives them in different places.

What was measured:
[1] = biological target: JAK2/JAK2 homdimeric complex (Homo sapiens (Human), UniProt O60674); experiment: GM-CSF Induced pSTAT5 in Human PBMC; type: cell-based; conditions: GM-CSF 5 ng/mL for 20 minutes, pSTAT5 by MSD, read-out: PBMC_GMCSF_pSTAT5 IC50
JAK2 kinase domain (JH1) = JAK2 kinase domain (JH1) (Homo sapiens (Human), UniProt O60674); experiment: JAK2 Radioactive Kinase Assay; type: biochemical; conditions: for inhibition at 10 µM: read-out: JAK2 JH1% Inhibition @ 10 μM
Procedure, shortened: (§1)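 Single-point screen: 10 μM test compound, radioactive kinase read-out, percent inhibition reported for each kinase domain.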

Tyk2 kinase domain (DH1) = Tyk2 kinase domain (DH1) (Homo sapiens (Human), UniProt P29597); experiment: Tyk2 Radioactive Kinase Assay; type: biochemical; conditions: for inhibition at 10 µM: read-out: Tyk2 JH1% Inhibition @ 10 μM
Procedure, shortened: as §1

[2] = biological target: human TYK2 (JH2domain-pseudokinase) (Homo sapiens (Human), UniProt P29597); experiment: TYK2 JH2 Domain Binding Assay (KINOMEscan)
Procedure, shortened: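 Pseudokinase domain binding was measured by qPCR of tagged, bead-retained kinase after 1 h room-temperature competition, with 0.9% DMSO and compound up to 30,000 nM in 3-fold steps. Hill-equation Kd, duplicate.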

JAK2/JAK2 homdimeric complex, sequence (O60674 whole entry, the tested form may be a part): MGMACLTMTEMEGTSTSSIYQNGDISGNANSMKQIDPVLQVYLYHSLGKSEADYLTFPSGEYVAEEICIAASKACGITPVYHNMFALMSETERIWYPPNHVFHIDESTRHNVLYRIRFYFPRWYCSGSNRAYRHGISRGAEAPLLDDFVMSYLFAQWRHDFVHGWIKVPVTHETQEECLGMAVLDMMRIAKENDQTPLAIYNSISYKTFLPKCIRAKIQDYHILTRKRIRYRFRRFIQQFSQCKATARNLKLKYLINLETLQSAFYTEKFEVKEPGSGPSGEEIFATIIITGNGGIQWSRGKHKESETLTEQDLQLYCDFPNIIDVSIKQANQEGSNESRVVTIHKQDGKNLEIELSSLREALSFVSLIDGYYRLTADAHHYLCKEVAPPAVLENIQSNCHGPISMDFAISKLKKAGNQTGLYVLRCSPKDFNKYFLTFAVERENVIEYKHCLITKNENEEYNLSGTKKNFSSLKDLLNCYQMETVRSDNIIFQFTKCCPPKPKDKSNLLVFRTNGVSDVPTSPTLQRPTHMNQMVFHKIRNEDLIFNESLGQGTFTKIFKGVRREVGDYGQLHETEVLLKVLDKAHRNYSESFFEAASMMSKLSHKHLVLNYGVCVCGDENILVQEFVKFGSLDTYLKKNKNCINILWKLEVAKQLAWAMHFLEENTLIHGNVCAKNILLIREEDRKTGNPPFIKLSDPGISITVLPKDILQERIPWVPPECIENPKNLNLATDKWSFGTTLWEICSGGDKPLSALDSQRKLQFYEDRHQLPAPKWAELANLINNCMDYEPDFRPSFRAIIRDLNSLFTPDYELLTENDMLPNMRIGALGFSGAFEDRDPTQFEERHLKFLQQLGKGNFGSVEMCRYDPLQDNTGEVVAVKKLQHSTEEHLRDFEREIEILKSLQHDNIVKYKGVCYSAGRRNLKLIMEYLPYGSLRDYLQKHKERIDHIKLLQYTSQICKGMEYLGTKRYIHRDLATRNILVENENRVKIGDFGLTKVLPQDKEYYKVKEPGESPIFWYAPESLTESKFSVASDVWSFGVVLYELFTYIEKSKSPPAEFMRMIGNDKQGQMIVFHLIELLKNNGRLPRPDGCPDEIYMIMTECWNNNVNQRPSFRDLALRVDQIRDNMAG
JAK2/JAK2 homdimeric complex, sequence (P32927 17-897 partner): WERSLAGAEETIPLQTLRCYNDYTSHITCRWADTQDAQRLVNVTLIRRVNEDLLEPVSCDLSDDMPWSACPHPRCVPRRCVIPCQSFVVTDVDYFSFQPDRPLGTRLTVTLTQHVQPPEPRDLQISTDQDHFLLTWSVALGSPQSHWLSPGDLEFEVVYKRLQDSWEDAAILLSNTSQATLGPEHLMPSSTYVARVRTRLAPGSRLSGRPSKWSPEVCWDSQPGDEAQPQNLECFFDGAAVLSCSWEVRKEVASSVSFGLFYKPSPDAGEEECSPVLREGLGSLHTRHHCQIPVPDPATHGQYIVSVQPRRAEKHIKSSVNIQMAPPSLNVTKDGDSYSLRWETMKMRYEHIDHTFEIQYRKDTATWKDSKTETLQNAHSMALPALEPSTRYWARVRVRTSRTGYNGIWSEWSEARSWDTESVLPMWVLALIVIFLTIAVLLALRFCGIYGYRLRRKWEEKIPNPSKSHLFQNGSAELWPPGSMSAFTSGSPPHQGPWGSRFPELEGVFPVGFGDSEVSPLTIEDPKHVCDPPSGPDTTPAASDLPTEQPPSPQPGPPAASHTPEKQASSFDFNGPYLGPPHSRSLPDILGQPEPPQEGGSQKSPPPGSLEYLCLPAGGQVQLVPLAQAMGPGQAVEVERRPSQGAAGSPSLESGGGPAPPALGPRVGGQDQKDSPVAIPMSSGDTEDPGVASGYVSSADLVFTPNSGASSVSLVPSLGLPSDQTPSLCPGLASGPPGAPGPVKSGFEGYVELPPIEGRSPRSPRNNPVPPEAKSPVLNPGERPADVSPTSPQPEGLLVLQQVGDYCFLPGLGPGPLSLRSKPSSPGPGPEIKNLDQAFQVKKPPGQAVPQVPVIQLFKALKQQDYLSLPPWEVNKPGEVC
Tyk2 kinase domain (DH1), sequence (P29597 897-1176): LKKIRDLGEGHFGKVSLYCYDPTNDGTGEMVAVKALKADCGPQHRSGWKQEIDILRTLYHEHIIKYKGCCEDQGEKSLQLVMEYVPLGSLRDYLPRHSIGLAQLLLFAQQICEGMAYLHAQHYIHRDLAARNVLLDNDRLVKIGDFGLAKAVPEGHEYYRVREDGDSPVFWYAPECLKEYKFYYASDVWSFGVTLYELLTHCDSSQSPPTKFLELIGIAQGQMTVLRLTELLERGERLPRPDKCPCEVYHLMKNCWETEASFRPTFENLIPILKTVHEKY
JAK2 kinase domain (JH1), sequence (O60674 849-1124): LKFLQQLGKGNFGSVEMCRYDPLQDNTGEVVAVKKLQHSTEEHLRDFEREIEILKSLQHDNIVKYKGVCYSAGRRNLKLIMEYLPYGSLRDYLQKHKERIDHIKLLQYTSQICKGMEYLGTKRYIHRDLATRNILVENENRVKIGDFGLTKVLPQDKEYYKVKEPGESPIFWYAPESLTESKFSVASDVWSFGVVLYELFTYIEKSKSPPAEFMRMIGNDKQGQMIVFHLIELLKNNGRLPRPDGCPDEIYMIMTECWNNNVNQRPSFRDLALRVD
human TYK2 (JH2domain-pseudokinase), sequence (P29597 556-888): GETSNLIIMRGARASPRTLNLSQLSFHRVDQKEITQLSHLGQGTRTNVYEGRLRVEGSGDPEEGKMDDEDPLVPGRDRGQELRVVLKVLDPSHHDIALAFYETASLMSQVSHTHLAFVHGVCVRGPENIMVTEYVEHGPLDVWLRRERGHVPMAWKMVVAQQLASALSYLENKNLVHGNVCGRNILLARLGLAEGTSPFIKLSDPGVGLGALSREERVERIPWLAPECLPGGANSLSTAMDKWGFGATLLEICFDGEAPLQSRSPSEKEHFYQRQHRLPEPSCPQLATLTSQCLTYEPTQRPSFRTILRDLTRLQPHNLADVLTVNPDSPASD

| SMILES | IC50 [1] [µM] | inhibition at 10 µM (JAK2 kinase domain (JH1); 10 μM compound, 10 μM ATP) [%] | inhibition at 10 µM (JAK2 kinase domain (JH1)) [%] | inhibition at 10 µM (Tyk2 kinase domain (DH1)) [%] | inhibition at 10 µM (Tyk2 kinase domain (DH1); 10 μM compound, 10 μM ATP) [%] | Kd [2] [µM] | JAK2 JH1% Inhibition @ 10 μM (JAK2 kinase domain (JH1); 10 μM compound, 10 μM ATP) | Tyk2 JH1% Inhibition @ 10 μM (Tyk2 kinase domain (DH1); 10 μM compound, 10 μM ATP) |
| --- | --- | --- | --- | --- | --- | --- | --- | --- |
| CNc1cc(Nc2cccn([C@@H]3CCCOC3)c2=O)nc2c(C(=O)NC3CCC3OC)cnn12 (mixture of isomers) [I-814, N-(-2-methoxycyclobutyl)-7-(methylamino)-5-((2-oxo-1-((R)-tetrahydro-2H-pyran-3-yl)-1,2-dihydropyridin-3-yl)amino)pyrazolo[1,5-a]pyrimidine-3-carboxamide] | > 50 | < 50 |  |  |  |  |  |  |
| CNc1cc(Nc2cccn(-c3ccccn3)c2=O)nc2c(C(=O)N[C@@H]3CC[C@H]3OC)cnn12 (stereo in doubt) [I-816, N-(2-methoxycyclobutyl)-7-(methylamino)-5-((2-oxo-2H-[1,2′-bipyridin]-3-yl)amino)pyrazolo[1,5-a]pyrimidine-3-carboxamide] | > 2.5 |  | < 50 | < 50 |  |  |  |  |
| CNc1cc(-c2cn(C3CC3)c3ncccc23)nc2c(C(=O)N[C@H]3CC[C@@H]3OC)cnn12 (stereo in doubt) [I-1067, 5-(1-cyclopropyl-1H-pyrrolo[2,3-b]pyridin-3-yl)-N-(2-methoxycyclobutyl)-7-(methylamino)pyrazolo[1,5-a]pyrimidine-3-carboxamide] | > 12.5 | < 50 |  |  | < 50 | < 0.0002 |  |  |
| CNc1cc(Nc2cccnc2OC)nc2c(C(=O)NOC(C)(C)C)cnn12 [I-612, N-(tert-butoxy)-5-((2-methoxypyridin-3-yl)amino)-7-(methylamino) pyrazolo[1,5-a]pyrimidine-3-carboxamide] | > 50 |  | < 50 |  |  |  |  |  |
| CCONC(=O)c1cnn2c(NC)cc(Nc3cccn(-c4ncccc4F)c3=O)nc12 [I-798, N-ethoxy-5-((3′-fluoro-2-oxo-2H-[1,2′-bipyridin]-3-yl)amino)-7-(methylamino) pyrazolo[1,5-a]pyrimidine-3-carboxamide] | > 50 |  | < 50 |  |  |  |  |  |
| CNc1cc(Nc2cccn([C@H]3CCCOC3)c2=O)nc2c(C(=O)N[C@@H]3CC[C@H]3OC)cnn12 [I-815] | > 12.5 | < 50 |  |  |  |  |  |  |
| CNc1cc(Nc2cccn([C@H]3CCCOC3)c2=O)nc2c(C(=O)N[C@H]3CC[C@@H]3OC)cnn12 [I-877] | > 50 | < 50 |  |  |  |  |  |  |
| CNc1cc(Nc2cccn([C@H]3CCCC[C@H]3O)c2=O)nc2c(C(=O)NC3CC3)cnn12 [I-878] | > 50 | < 50 |  |  | < 50 | < 0.0002 |  |  |
| CNc1cc(Nc2cccn([C@@H]3CCCOC3)c2=O)nc2c(C(=O)N[C@@H]3CC[C@H]3OC)cnn12 [I-902, N-((1R,2R)-2-methoxycyclobutyl)-7-(methylamino)-5-((2-oxo-1-((R)-tetrahydro-2H-pyran-3-yl)-1,2-dihydropyridin-3-yl)amino)pyrazolo[1,5-a]pyrimidine-3-carboxamide] | > 50 |  |  |  |  |  | A (percent inhibition at 10 μM lower than 50) |  |
| CNc1cc(Nc2cccn(-c3ccccn3)c2=O)nc2c(C(=O)N[C@@H]3CC[C@H]3OC)cnn12 [I-908, N-((1R,2R)-2-methoxycyclobutyl)-7-(methylamino)-5-((2-oxo-2H-[1,2′-bipyridin]-3-yl)amino)pyrazolo[1,5-a]pyrimidine-3-carboxamide] | > 50 |  |  |  |  |  | A (percent inhibition at 10 μM lower than 50) | A (percent inhibition at 10 μM lower than 50) |
| CNc1cc(Nc2cccn(-c3ccc(F)cn3)c2=O)nc2c(C(=O)N[C@H]3CC[C@@H]3OC)cnn12 [I-926] | > 2.5 |  |  |  |  |  |  |  |
| CNc1cc(Nc2cc(Cl)cn(-c3cnn(C)c3F)c2=O)nc2c(C(=O)NC3CC3)cnn12 [I-955] | > 12.5 | < 50 |  |  | < 50 | < 0.0002 |  |  |
| CNc1cc(Nc2cccn([C@@H]3CCC[C@@H](OC)C3)c2=O)nc2c(C(=O)NC3CC3)cnn12 [I-957] | > 50 |  |  |  |  |  | A (percent inhibition at 10 μM lower than 50) | A (percent inhibition at 10 μM lower than 50) |
| CNc1cc(Nc2cccn(C3CCC[C@H](OC)C3)c2=O)nc2c(C(=O)NCC(C)(C)CO)cnn12 (some centres unmarked) [I-958] | > 50 | < 50 |  |  | < 50 | < 0.0002 |  |  |
| CNc1cc(Nc2cccn([C@H]3CC[C@](C)(OC)CC3)c2=O)nc2c(C(=O)N[C@@H]3CC[C@H]3O)cnn12 [I-962] | > 50 |  |  |  |  | < 0.0002 | A (percent inhibition at 10 μM lower than 50) | A (percent inhibition at 10 μM lower than 50) |
| CNc1cc(Nc2cccn([C@H]3CCC[C@H]3O)c2=O)nc2c(C(=O)NC3CC3)cnn12 [I-963] | > 50 | < 50 |  |  | < 50 | < 0.0002 |  |  |
| CNc1cc(Nc2cccn([C@H]3CCC[C@H]3O)c2=O)nc2c(C(=O)N[C@@H]3C[C@@H]3F)cnn12 [I-965] | > 50 | < 50 |  |  | < 50 | < 0.0002 |  |  |
| CNc1cc(Nc2cccc(N3CCCC3=O)n2)nc2c(C(=O)N[C@H]3CC[C@H]3O)cnn12 [I-969] | > 50 | < 50 |  |  | < 50 | < 0.0002 |  |  |
| CNc1cc(Nc2cccn(-c3ccccn3)c2=O)nc2c(C(=O)N[C@H]3CC[C@@H]3O)cnn12 [I-971] | > 50 | < 50 |  |  | < 50 |  |  |  |

| SMILES | IC50 [1] [µM] | inhibition at 10 µM (JAK2 kinase domain (JH1); 10 μM compound, 10 μM ATP) [%] | inhibition at 10 µM (JAK2 kinase domain (JH1)) [%] | inhibition at 10 µM (Tyk2 kinase domain (DH1)) [%] | inhibition at 10 µM (Tyk2 kinase domain (DH1); 10 μM compound, 10 μM ATP) [%] | Kd [2] [µM] | JAK2 JH1% Inhibition @ 10 μM (JAK2 kinase domain (JH1); 10 μM compound, 10 μM ATP) | Tyk2 JH1% Inhibition @ 10 μM (Tyk2 kinase domain (DH1); 10 μM compound, 10 μM ATP) |
| --- | --- | --- | --- | --- | --- | --- | --- | --- |
| CNc1cc(Nc2cccn(-c3nc(C)co3)c2=O)nc2c(C(=O)N[C@H]3CC[C@@H]3OC)cnn12 [I-975] | > 50 |  |  |  |  |  |  |  |
| CNc1cc(Nc2cccn(C(C)C)c2=O)nc2c(C(=O)N[C@H]3CC[C@@H]3OC)cnn12 [I-980] | > 50 |  |  |  |  |  |  |  |
| CNc1cc(Nc2cccn(-c3cncc(F)c3)c2=O)nc2c(C(=O)N[C@H]3CC[C@@H]3OC)cnn12 [I-984] | > 50 |  |  |  |  |  | A (percent inhibition at 10 μM lower than 50) |  |
| CNc1cc(Nc2cccn([C@H]3CCC[C@@H](OC)C3)c2=O)nc2c(C(=O)N[C@@H]3CC[C@H]3O)cnn12 [I-993] | > 50 |  |  |  |  |  | A (percent inhibition at 10 μM lower than 50) | A (percent inhibition at 10 μM lower than 50) |
| CNc1cc(Nc2cccn([C@H]3CCC[C@@H](OC)C3)c2=O)nc2c(C(=O)N[C@H]3CC[C@@H]3OC)cnn12 [I-996] | > 50 |  |  |  |  | < 0.0002 | A (percent inhibition at 10 μM lower than 50) | A (percent inhibition at 10 μM lower than 50) |
| CNc1cc(Nc2cccn([C@@H]3CC[C@H]3O)c2=O)nc2c(C(=O)N[C@@H]3C[C@@H]3F)cnn12 [I-999] | > 50 | < 50 |  |  | < 50 | < 0.0002 |  |  |
| CNc1cc(Nc2cccn(-c3cccc(F)c3)c2=O)nc2c(C(=O)N[C@H]3CC[C@H]3O)cnn12 [I-1004] | > 12.5 |  |  |  |  | < 0.0002 | A (percent inhibition at 10 μM lower than 50) | A (percent inhibition at 10 μM lower than 50) |
| CNc1cc(Nc2cccn([C@H]3CCC[C@H](OC)C3)c2=O)nc2c(C(=O)NCC3(CO)CC3)cnn12 [I-1010] | > 50 | < 50 |  |  | < 50 | < 0.0002 |  |  |
| CNc1cc(-c2cn(C(C)C)c3ncc(F)cc23)nc2c(C(=O)N[C@H]3CC[C@H]3O)cnn12 [I-1013, 5-(5-fluoro-1-isopropyl-1-pyrrolo[2,3-b]pyridin-3-yl)-N-(2-hydroxycyclobutyl)-7-(methylamino)pyrazolo[1,5-a]pyrimidine-3-carboxamide] | > 12.5 | < 50 |  |  | < 50 | < 0.0002 |  |  |
| CNc1cc(Nc2cccn(C3CCOCC3)c2=O)nc2c(C(=O)N[C@H]3CC[C@@H]3OC)cnn12 [I-1014] | > 50 |  |  |  |  |  |  |  |
| CNc1cc(Nc2cccn(-c3cnco3)c2=O)nc2c(C(=O)N[C@H]3CC[C@H]3O)cnn12 [I-1017] | > 12.5 | < 50 |  |  | < 50 | < 0.0002 |  |  |
| CNc1cc(Nc2cccn([C@@H]3CC[C@H]3OC)c2=O)nc2c(C(=O)N[C@@H]3C[C@@H]3F)cnn12 [I-1022] | > 12.5 | < 50 |  |  | < 50 | < 0.0002 |  |  |
| CNc1cc(Nc2cccn([C@H]3CCC[C@H](OC)C3)c2=O)nc2c(C(=O)NC3CC3)cnn12 [I-1025] | > 50 | < 50 |  |  | < 50 | < 0.0002 |  |  |
| CNc1cc(Nc2cccn([C@H]3CCC[C@H](OC)C3)c2=O)nc2c(C(=O)NCC(C)(C)CO)cnn12 [I-1027] | > 50 | < 50 |  |  | < 50 | < 0.0002 |  |  |
| CNc1cc(Nc2cccn([C@H]3CC[C@H](OC)CC3)c2=O)nc2c(C(=O)N[C@H]3CC[C@@H]3OC)cnn12 [I-1062] | > 50 |  |  |  |  |  |  |  |
| CNc1cc(Nc2cccn([C@H]3[C@@H]4COC[C@@H]43)c2=O)nc2c(C(=O)N[C@H]3CC[C@@H]3OC)cnn12 [I-1088] | > 50 | < 50 |  |  | < 50 |  |  |  |
| CNc1cc(Nc2cccn([C@H]3CC[C@H](OC)CC3)c2=O)nc2c(C(=O)N[C@@H]3CC[C@H]3OC)cnn12 [I-1378] | > 50 |  |  |  |  |  |  |  |
| CNc1cc(Nc2cccn(-c3ncco3)c2=O)nc2c(C(=O)N[C@@H]3CC[C@H]3OC)cnn12 [I-1398] | > 50 |  |  |  |  |  |  |  |
